The values that follow come from patent US7138408B2, “HIV integrase inhibitors, pharmaceutical compositions and methods for their use” (priority 2003, dated 2006).

pIC50: −log10 of the molar value.

The assay concerns the target T1, HIV-1 integrase (SF1) (Human immunodeficiency virus type 1 group M subtype B, UniProt P04585, C1203S/C1427S/F1286D/F1332K/W1278D).
T1 construct: 6-histidine tag with thrombin cleavage site (N, cleaved yes); made in house; host or cells: E. coli BL21 (DE3)
Put plainly: Integrase strand-transfer scintillation proximity assay. The format is biochemical. An excerpt:
Oligonucleotides: Oligonucleotide #1-5′-(biotin)[…]-3′ (SEQ ID NO: 1) and oligonucleotide #2-5′-[…]-3′ (SEQ ID NO: 2), were synthesized by TriLink BioTechnologies, Inc. (San Diego, Calif.). The annealed product represents preprocessed viral ds-DNA derived from the LTR U5 sequence of the viral genome. A ds-DNA control to test for non-specific interactions was made using a 3′ di-deoxy derivative of oligonucleotide #1 annealed to oligonucleotide #2. The CA overhang at the 5′ end of the non-biotinylated strand of the ds-DNA was created artificially by using a complimentary DNA oligonucleotide shortened by 2 base pairs. This configuration eliminates the requisite 3′ processing step of the integrase enzyme prior to the strand-transfer mechanism.
Host ds-DNA was prepared as an unlabeled and [^3H]-thymidine labeled product from annealed oligonucleotide #3-5-[…]-3′ (SEQ ID NO: 3), and oligonucleotide #4-5′-[…]-3′ (SEQ ID NO: 4), both synthesized by TriLink BioTechnologies, Inc. (San Diego, Calif.). The annealed product had overhanging 3′ ends of poly(dA). Host DNA was custom radiolabeled by PerkinElmer Life Sciences Inc. (Boston, Mass.) using an enzymatic method with a 12/1 ratio of [methyl-^3H]dTTP/cold ds-DNA to yield 5′-blunt end ds-DNA with a specific activity of>900 Ci/mmol. The radiolabeled product was purified using a NENSORB cartridge and stored in stabilized aqueous solution (PerkinElmer). The final radiolabeled product had six [^3H]-thymidine nucleotides at both 5′ ends of the host ds-DNA.
Reagents: Streptavidin-coated polyvinyltoluene (PVT) SPA beads were purchased from Amersham Pharmacia (Piscataway, N.J.). Cesium chloride was purchased from Shelton Scientific, Inc. (Shelton, Conn.). White polystyrene, flat bottom, non-binding surface 384-well plates were purchased from Corning. All other buffer components were purchased from Sigma (St. Louis, Mo.) unless otherwise indicated.
Enzyme Construction: Full-length HIV-1 integrase (SF1) sequence (amino acids 1–288) (SEQ ID NO: 5) was constructed in a pET 15b vector (Novagen, Madison, Wis.) with mutations outlined by Chen et al. (Chen, C-H. J. et al., PNAS 97: 8233–8238 (2000)) that facilitate solubility of the enzyme and decrease oxidation. The vector contained a T7 promoter, a 6-histidine tag at the amino terminus, and a thrombin cleavage site. Mutations C56S, W131D, F139D, F185K, and C280S were introduced using a QuickChange kit (Stratagene, San Diego, Calif.). The construct was confirmed through DNA sequencing.
Enzyme Purification: The penta-mutant was expressed in E. coli BL21 (DE3) cells and induced with 1 mM isopropyl-1 thio-β-D-galactopyranoside (IPTG) when cells reached an optical density between 0.8–1.0 at 600 nm. Cells were lysed in 20 mM HEPES (pH 7.5), 1.5 M NaCl, 5 mM imidazole, and 2 mM 2-mercaptoethanol. The enzyme was purified following standard methods for histidine tagged proteins (Jenkins, T. M. et al., Journal of Biological Chemistry 271: 7712–7718 (1996)). Specifically, cell lysate was passed over a Ni-Nta column (Qiagen, Chatsworth, Calif.) with the 6-His tagged integrase protein eluted by adding 250 mM imidazole. A G-25 Sepharose® column (Amersham Pharmacia, Piscataway, N.J.) was used to exchange the buffer prior to thrombin cleavage of the integrase protein and subsequent removal of thrombin using a benzamidine-Sepharose® 6B column. The cleaved 6-His tag was separated from the integrase using a second Ni-Nta column. The integrase was further purified with a heparin-Sepharose® column and a gradient of NaCl (0.4 to 1 M) in 20 mM HEPES (pH 7.5), 400 mM NaCl, and 1 mM DTT buffer. The purified protein was dialyzed against 20 mM HEPES (pH 7.5), 800 mM NaCl, and 1 mM DTT and concentrated by stirred cell ultrafiltration (Millipore, Bedford, Mass.) or Ultra-free spin concentrators (Millipore, Bedford, Mass.) when required. […]
In general terms: In a scintillation proximity assay essentially only radioactivity close to the scintillant gives light.
By pIC50 is commonly meant the negative decadic logarithm of the IC50, by convention in mol/L. Read a low pIC50 as a high IC50. Turning to `O=C(NO)c1cc2c3ccccc3n(Cc3c(F)ccc(Cl)c3F)c2cn1` [Compound 7, 9-(3-Chloro-2,6-difluorobenzyl)-N-hydroxy-9H-β-carboline-3-carboxamide], the pIC50 was 5.86.
As to `O=C(NO)c1cc2c3ccccc3n(Cc3ccc(F)cc3)c2cn1` [Compound 1, 9-(4-Fluorobenzyl)-N-hydroxy-9H-β-carboline-3-carboxamide], the negative logarithm of the IC50 (pIC50) is 6.63.
In the case of `O=C(NO)c1cc2c3ccccc3n(Cc3ccc(Cl)s3)c2cn1` [Compound 2, 9-[(5-Chlorothien-2-yl)methyl]-N-hydroxy-9H-β-carboline-3-carboxamide], the negative logarithm of the IC50 (pIC50) was 6.31.
As for `O=C(NO)c1cc2c3ccccc3n(Cc3cccc(Cl)c3F)c2cn1` [Compound 3, 9-(3-Chloro-2-fluorobenzyl)-N-hydroxy-9H-β-carboline-3-carboxamide], the figure is 6.40; as for `CN(O)C(=O)c1cc2c3ccccc3n(Cc3ccc(F)cc3)c2cn1` [Compound 13, 9-(4-Fluorobenzyl)-N-hydroxy-N-methyl-9H-β-carboline-3-carboxamide], 6.16.
Compound `Nc1ccc2c(c1)c1cc(C(=O)NO)ncc1n2Cc1cccc(Cl)c1` [Compound 8, 6-Amino-9-(3-chlorobenzyl)-N-hydroxy-9H-β-carboline-3-carboxamide] gave a negative logarithm of the IC50 (pIC50) of 6.15.
As for `O=C(NO)c1cc2c3ccccc3n(Cc3ccc(F)cc3F)c2cn1` [Compound 6, 9-(2,4-Difluorobenzyl)-N-hydroxy-9H-β-carboline-3-carboxamide], the figure is 6.33; as for `O=C(NO)c1cc2c3ccccc3n(Cc3ccccc3)c2cn1` [Compound 4, 9-Benzyl-N-hydroxy-9H-β-carboline-3-carboxamide], 6.55.
